Source: the NIST ThermoML archive (doi:10.1021/je201080c)

What was measured:
[1] = for viscosity / mass density: 101.33 kPa, Liquid; for viscosity: Surface Light Scattering; for mass density: Vibrating tube method; for surface tension liquid-gas: Pendant drop shape
[2] = refractive index (Na D-line) (dimensionless); conditions: 101.33 kPa, Liquid, Standard Abbe refractometry

CCn1cc[n+](C)c1.N#C[B-](C#N)(C#N)C#N [1-ethyl-3-methylimidazolium tetracyanoborate]
Conditions	mass density, [1] [kg/m3]	refractive index, [2]	surface tension liquid-gas, [1] [mN/m]	viscosity, [1] [mPa·s]
283.15 K	1048.33	1.4533	–	37.06
288.15 K	1044.31	–	–	27.75
293.15 K	1040.31	1.4499	–	21.79
297.04 K	–	–	47.09	–
298.15 K	1036.34	–	–	–
303.15 K	1032.4	1.4465	–	14.65
308.15 K	1028.48	–	–	–
313.15 K	1024.59	1.4432	43.29	10.09
318.15 K	1020.72	–	–	–
323.15 K	1016.87	–	41.6	7.61
328.15 K	1013.06	–	–	–
333.15 K	1009.26	–	39.53	5.77
338.15 K	1005.49	–	–	–
343.15 K	1001.74	–	38.33	4.67
348.15 K	998.01	–	–	–
353.15 K	994.28	–	36.52	3.7
358.15 K	990.59	–	–	–
363.15 K	986.92	–	35.8	3.16
